According to patent US10913710B2, “Benzene disulfonamide for the treatment of cancer” (priority 2017, dated 2021):

The compounds below were run against PDEδ (Homo sapiens (Human), UniProt O43924) (assay: Fluorescence polarization competition binding assay: displacement titration of labeled Atorvastatin probe for KD). Settings: fluorescence polarization assay; activity classes; read-out: KD.
Protocol: Example D.2: Displacement Titrations of Labeled Atorvastatin-Probe for the Determination of KD Values
Displacement Titrations of Labeled Atorvastatin-Probe for the Determination of KD Values:
The purification was followed by size exclusion gel filtration on a Superdex 75 S26/60 column using buffer A (25 mM Tris-HCl, pH 7.5, 150 mM NaCl and 3 mM DTE).

Question: With `CCN(Cc1ccccc1)S(=O)(=O)c1ccc(S(=O)(=O)N(Cc2ccc(F)cc2)Cc2ccco2)cc1` [Compound 47, N1-benzyl-N1-ethyl-N4-(4-fluorobenzyl)-N4-(furan-2-ylmethyl)benzene-1,4-disulfonamide] as the compound, how does the Kd read?
Answer: The Kd was 30 to 100 nM.

Question: `CCN(Cc1ccccc1)S(=O)(=O)c1ccc(S(=O)(=O)N(Cc2ccccc2)Cc2ccccn2)cc1` [Compound 48, N1,N4-dibenzyl-N1-ethyl-N4-(pyridin-2-ylmethyl)benzene-1,4-disulfonamide] was tested. Which Kd did it give?
Answer: Its Kd is 1 to 30 nM.

Question: `CCN(Cc1ccccc1)S(=O)(=O)c1ccc(S(=O)(=O)N(Cc2ccccc2)Cc2ccccc2F)cc1` [Compound 49, N1,N4-dibenzyl-N1-ethyl-N4-(2-fluorobenzyl)benzene-1,4-disulfonamide] was tested. Which Kd did it give?
Answer: The Kd was 1 to 30 nM.

Question: With `CC1CCCN(S(=O)(=O)c2ccc(S(=O)(=O)N(Cc3ccccc3Cl)CC3CCCO3)cc2)C1` (stereo not drawn) [Compound 50, N-(2-chlorobenzyl)-4-((3-methylpiperidin-1-yl)sulfonyl)-N-((tetrahydrofuran-2-yl)methyl)benzenesulfonamide] as the compound, how does the Kd read?
Answer: Its Kd is 30 to 100 nM.

Question: With `COc1cccc(CN(C2CC2)S(=O)(=O)c2ccc(S(=O)(=O)NCc3ccccc3)cc2)c1OC` [Compound 51, N1-benzyl-N4-cyclopropyl-N4-(2,3-dimethoxybenzyl)benzene-1,4-disulfonamide] as the compound, how does the Kd read?
Answer: Its Kd is 100 to 1000 nM.

Question: For `O=S(=O)(c1ccc(S(=O)(=O)N(Cc2ccc(Cl)cc2)Cc2ccco2)cc1)N1CCCCCC1` [Compound 52, 4-(azepan-1-ylsulfonyl)-N-(4-chlorobenzyl)-N-(furan-2-ylmethyl)benzenesulfonamide], which Kd is on record?
Answer: Its Kd is 100 to 1000 nM.

Question: How did the Kd turn out when `O=S(=O)(NC1CCCC1)c1ccc(S(=O)(=O)N(Cc2ccc(F)cc2)Cc2ccccc2F)cc1` [Compound 53, N1-cyclopentyl-N4-(2-fluorobenzyl)-N4-(4-fluorobenzyl)benzene-1,4-disulfonamide] was run?
Answer: Its Kd is 100 to 1000 nM.

Question: Which Kd does the source give for `O=S(=O)(NC1CCCCC1)c1ccc(S(=O)(=O)N(Cc2ccccc2)Cc2ccco2)cc1` [Compound 54, N1-benzyl-N4-cyclohexyl-N1-(furan-2-ylmethyl)benzene-1,4-disulfonamide] here?
Answer: The Kd was 100 to 1000 nM.

Question: With `CCN(Cc1ccccc1)S(=O)(=O)c1ccc(S(=O)(=O)N(Cc2ccccc2F)CC2CCCO2)cc1` (stereo not drawn) [Compound 55, N1-benzyl-N1-ethyl-N4-(2-fluorobenzyl)-N4-((tetrahydrofuran-2-yl)methyl)benzene-1,4-disulfonamide] as the compound, how does the Kd read?
Answer: The Kd was 1 to 30 nM.

Question: `CC(C)c1ccc(CN(CC2CCCO2)S(=O)(=O)c2ccc(S(=O)(=O)N(C)C3CCCCC3)cc2)cc1` (stereo not drawn) [Compound 56, N1-cyclohexyl-N4-(4-isopropylbenzyl)-N1-methyl-N4-((tetrahydrofuran-2-yl)methyl)benzene-1,4-disulfonamide] was tested. Which Kd did it give?
Answer: Its Kd is 1 to 30 nM.

Question: With `COc1ccc(CN(C2CCCCC2C)S(=O)(=O)c2ccc(S(=O)(=O)N(C)C3CCCCC3)cc2)cc1OC` (stereo not drawn) [Compound 57, N1-cyclohexyl-N4-(3,4-dimethoxybenzyl)-N1-methyl-N4-(2-methylcyclohexyl)benzene-1,4-disulfonamide] as the compound, how does the Kd read?
Answer: Its Kd is 100 to 1000 nM.

Question: `CC1CCCN(S(=O)(=O)c2ccc(S(=O)(=O)N(Cc3ccccc3F)C3CCCC3)cc2)C1` (stereo not drawn) [Compound 58, N-cyclopentyl-N-(2-fluorobenzyl)-4-((3-methylpiperidin-1-yl)sulfonyl)benzenesulfonamide] was tested. Which Kd did it give?
Answer: Its Kd is 30 to 100 nM.

Question: Which Kd does the source give for `CC(C)c1ccc(CN(Cc2ccco2)S(=O)(=O)c2ccc(S(=O)(=O)N(C)Cc3ccccc3)cc2)cc1` [Compound 59, N1-benzyl-N4-(furan-2-ylmethyl)-N4-(4-isopropylbenzyl)-N1-methylbenzene-1,4-disulfonamide] here?
Answer: Its Kd is 100 to 1000 nM.

Question: Which Kd does the source give for `COc1cc(CN(C2CCCCC2C)S(=O)(=O)c2ccc(S(=O)(=O)NC3CCCC3)cc2)cc(OC)c1OC` (stereo not drawn) [Compound 60, N1-cyclopentyl-N4-(2-methylcyclohexyl)-N4-(3,4,5-trimethoxybenzyl)benzene-1,4-disulfonamide] here?
Answer: Its Kd is 100 to 1000 nM.

Question: For `CN(Cc1ccccc1)S(=O)(=O)c1ccc(S(=O)(=O)N(Cc2ccc(F)cc2)C2CCCCC2)cc1` [Compound 61, N1-benzyl-N4-cyclohexyl-N4-(4-fluorobenzyl)-N1-methylbenzene-1,4-disulfonamide], which Kd is on record?
Answer: The Kd was 1 to 30 nM.

Question: How did the Kd turn out when `O=S(=O)(NCC1CCCO1)c1ccc(S(=O)(=O)N(Cc2ccccc2)Cc2ccc(Cl)cc2)cc1` (stereo not drawn) [Compound 62, N1-benzyl-N1-(4-chlorobenzyl)-N4-((tetrahydrofuran-2-yl)methyl)benzene-1,4-disulfonamide] was run?
Answer: The Kd was 100 to 1000 nM.

Question: For `CC(C)c1ccc(CN(CC2CCCO2)S(=O)(=O)c2ccc(S(=O)(=O)NCc3ccccc3)cc2)cc1` (stereo not drawn) [Compound 63, N1-benzyl-N4-(4-isopropylbenzyl)-N4-((tetrahydrofuran-2-yl)methyl)benzene-1,4-disulfonamide], which Kd is on record?
Answer: Its Kd is 1 to 30 nM.

Question: For `COc1cc(CN(C2CCCCC2)S(=O)(=O)c2ccc(S(=O)(=O)N(C)C3CCCCC3)cc2)cc(OC)c1OC` [Compound 64, N1,N4-dicyclohexyl-N1-methyl-N4-(3,4,5-trimethoxybenzyl)benzene-1,4-disulfonamide], which Kd is on record?
Answer: Its Kd is 100 to 1000 nM.

Question: `O=S(=O)(NC1CCCCC1)c1ccc(S(=O)(=O)N(Cc2ccccc2)CC2CCCO2)cc1` (stereo not drawn) [Compound 65, N1-benzyl-N4-cyclohexyl-N1-((tetrahydrofuran-2-yl)methyl)benzene-1,4-disulfonamide] was tested. Which Kd did it give?
Answer: Its Kd is 1 to 30 nM.

Question: Which Kd does the source give for `O=S(=O)(NCc1ccccc1)c1ccc(S(=O)(=O)N(Cc2ccco2)Cc2ccccc2F)cc1` [Compound 66, N1-benzyl-N4-(2-fluorobenzyl)-N4-(furan-2-ylmethyl)benzene-1,4-disulfonamide] here?
Answer: The Kd was > 1000 nM.

Question: Which Kd does the source give for `COc1cccc(CN(CC2CCCO2)S(=O)(=O)c2ccc(S(=O)(=O)N3CCCC3)cc2)c1` (stereo not drawn) [Compound 67, N-(3-methoxybenzyl)-4-(pyrrolidin-1-ylsulfonyl)-N-((tetrahydrofuran-2-yl)methyl)benzenesulfonamide] here?
Answer: The Kd was 100 to 1000 nM.

Question: With `CCN(CC)S(=O)(=O)c1ccc(S(=O)(=O)N(Cc2ccc(OC)c(OC)c2)C2CCCCC2C)cc1` (stereo not drawn) [Compound 68, N1-(3,4-dimethoxybenzyl)-N4,N4-diethyl-N1-(2-methylcyclohexyl)benzene-1,4-disulfonamide] as the compound, how does the Kd read?
Answer: Its Kd is 1 to 30 nM.

Question: `CCOc1ccc(CN(C2CC2)S(=O)(=O)c2ccc(S(=O)(=O)N(C)C)cc2)cc1` [Compound 69, N1-cyclopropyl-N1-(4-ethoxybenzyl)-N4,N4-dimethylbenzene-1,4-disulfonamide] was tested. Which Kd did it give?
Answer: The Kd was 100 to 1000 nM.

Question: With `COc1ccc(CN(C2CCCCC2C)S(=O)(=O)c2ccc(S(=O)(=O)NCc3ccccc3)cc2)cc1OC` (stereo not drawn) [Compound 70, N1-benzyl-N4-(3,4-dimethoxybenzyl)-N4-(2-methylcyclohexyl)benzene-1,4-disulfonamide] as the compound, how does the Kd read?
Answer: The Kd was 100 to 1000 nM.

Question: With `CN(C)S(=O)(=O)c1ccc(S(=O)(=O)N(Cc2ccc(Cl)cc2)Cc2ccco2)cc1` [Compound 71, N1-(4-chlorobenzyl)-N1-(furan-2-ylmethyl)-N4,N4-dimethylbenzene-1,4-disulfonamide] as the compound, how does the Kd read?
Answer: The Kd was > 1000 nM.

Question: Which Kd does the source give for `CC1CCCN(S(=O)(=O)c2ccc(S(=O)(=O)N(Cc3ccc4c(c3)OCO4)Cc3ccccc3F)cc2)C1` (stereo not drawn) [Compound 72, N-(benzo[d][1,3]dioxol-5-ylmethyl)-N-(2-fluorobenzyl)-4-((3-methylpiperidin-1-yl)sulfonyl)benzenesulfonamide] here?
Answer: The Kd was 100 to 1000 nM.

Question: Which Kd does the source give for `COc1ccc(CN(Cc2ccc(C)cc2)S(=O)(=O)c2ccc(S(=O)(=O)N(C)Cc3ccccc3)cc2)cc1` [Compound 73, N1-benzyl-N4-(4-methoxybenzyl)-N1-methyl-N4-(4-methylbenzyl)benzene-1,4-disulfonamide] here?
Answer: Its Kd is 100 to 1000 nM.
